What was measured:
E-Selectin = experiment: CAM ELISA: E-selectin expression on TNF-stimulated HUVECs; type: cell-based; conditions: 1 μM compound, primary human umbilical vein endothelial cells, compound 24 hours, then TNF 5 ng/mL 6 hours; for inhibition at 1 µM: Homo sapiens, Endothelial cell
Procedure, shortened: (§1)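 Pooled primary HUVECs (passages 3–7), hydrocortisone-free medium, pretreated 24 h with compound at 37° C, then stimulated with TNF 5 ng/mL for 6 h. Surface VCAM-1, ICAM-1 or E-selectin measured by cell ELISA: specific mouse primary antibody, HRP anti-mouse secondary, OPD development, absorbance at 490 nm.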

VCAM-1 = experiment: CAM ELISA: VCAM-1 expression on TNF-stimulated HUVECs; type: cell-based; conditions: 1 μM compound, primary human umbilical vein endothelial cells, compound 24 hours, then TNF 5 ng/mL 6 hours; for inhibition at 1 µM: Homo sapiens, Endothelial cell
Procedure, shortened: as §1

ICAM-1 = experiment: CAM ELISA: ICAM-1 expression on TNF-stimulated HUVECs; type: cell-based; conditions: 1 μM compound, primary human umbilical vein endothelial cells, compound 24 hours, then TNF 5 ng/mL 6 hours; for inhibition at 1 µM: Homo sapiens, Endothelial cell
Procedure, shortened: as §1

Structure (SMILES)	melting point	inhibition at 1 µM (E-Selectin)	inhibition at 1 µM (VCAM-1)	inhibition at 1 µM (ICAM-1)	CAM ELISA % Inhibition at 1 μM E-Selectin (E-Selectin)	CAM ELISA % Inhibition at 1 μM VCAM-1 (VCAM-1)	CAM ELISA % Inhibition at 1 μM ICAM-1 (ICAM-1)
OCc1cc2c(Oc3ccc(Cl)cc3)cncc2s1 [Example 90, 4-(4-chlorophenoxy)thieno[2,3-c]pyridine-2-methanol]	90 to 91 °C	47%	27%	51%			
NNC(=O)c1cc2c(Oc3ccc(C(F)(F)F)cc3)cncc2s1 [Example 158, 4-[4-(Trifluoromethyl)phenoxy]thieno[2,3-c]pyridine-2-carbohydrazide]	146 to 147 °C	61%	26%	65%			
Nc1ccc(-c2cc3c(Oc4ccc(Cl)cc4)cncc3s2)cn1 [Example 274, 5-[4-(4-Chlorophenoxy)thieno[2,3-c]pyridin-2-yl]-2-pyridinamine]	208 to 210 °C	65%	44%	71%			
Cc1nc(-c2cc3c(Oc4ccc(Cl)cc4)cncc3s2)no1 [Example 279, 4-(4-Chlorophenoxy)-2-(5-methyl-1,2,4-oxadiazol-3-yl)thieno[2,3-c]pyridine]	120 to 121 °C	30%	24%	40%			
Nc1noc(-c2cc3c(Oc4ccc(Cl)cc4)cncc3s2)n1 [Example 285, 5-[4-(4-Chlorophenoxy)thieno[2,3-c]pyridin-2-yl]-1,2,4-oxadiazol-3-amine]	217 to 219 °C	56%	50%	65%			
CNc1nnc(-c2cc3c(Oc4ccc(Cl)cc4)cncc3s2)s1 [Example 286, 5-[4-(4-Chlorophenoxy)thieno[2,3-c]pyridin-2-yl]-N-methyl-1,3,4-thiadiazol-2-amine]	226 to 229 °C	54%	46%	64%			
O=C(NCCO)c1cc2c(Oc3ccc(Cl)cc3)cnc(Cl)c2s1 [Example 313, 7-Chloro-4-(4-chlorophenoxy)-N-(2-hydroxyethyl)thieno[2,3-c]pyridine-2-carboxamide]	129 to 132 °C	57%	39%	68%			

Second part, led by results:

melting point	Structure (SMILES)	inhibition at 1 µM (E-Selectin)	inhibition at 1 µM (VCAM-1)	inhibition at 1 µM (ICAM-1)	CAM ELISA % Inhibition at 1 μM E-Selectin (E-Selectin)	CAM ELISA % Inhibition at 1 μM VCAM-1 (VCAM-1)	CAM ELISA % Inhibition at 1 μM ICAM-1 (ICAM-1)
198 to 199 °C	NC(=O)c1cc2c(SCc3ccc(Cl)cc3)cncc2s1 [Example 54, 4-[[(4-chlorophenyl)methyl]thio]thieno[2,3-c]pyridine-2-carboxamide]	74%	33%	59%			
113 to 114 °C	CCOCCOCCOCC1(c2ccc(Oc3cncc4sc(-c5nnc(N)o5)cc34)cc2)CC1 [Example 228, 5-{4-[4-(1-{[2-(2-Ethoxyethoxy)ethoxy]methyl}cyclopropyl)phenoxy]thieno[2,3-c]pyridin-2-yl}-1,3,4-oxadiazol-2-amine]	70%	54%	68%	67%	52%	64%
194 to 196 °C	NC(=NO)c1cc2c(Oc3ccc(Cl)cc3)cncc2s1 [Example 249, 4-(4-Chlorophenoxy)-N′-hydroxythieno[2,3-c]pyridine-2-carboximidamide]	75%	61%	69%			
195 to 196 °C	NC(=O)/C=C/c1cc2c(Oc3ccc(Br)cc3)cncc2s1 [Example 259, (E)-3-[4-(4-Bromophenoxy)thieno[2,3-c]pyridin-2-yl]propenamide]	63%	57%	59%			
233 to 235 °C	Cn1c(N)nnc1-c1cc2c(Oc3ccc(Cl)cc3)cncc2s1 [Example 283, 5-[4-(4-Chlorophenoxy)thieno[2,3-c]pyridin-2-yl]-4-methyl-4H-1,2,4-triazol-3-amine]	39%	52%	57%			
52 to 54 °C	FC(F)(F)c1nc(-c2cc3c(Oc4ccc(Cl)cc4)cncc3s2)no1 [Example 284, 4-(4-Chlorophenoxy)-2-[5-(trifluoromethyl)-1,2,4-oxadiazol-3-yl]thieno[2,3-c]pyridine]	56%	45%	68%			
168 to 170 °C (dec.)	Nc1csc(-c2cc3c(Oc4ccc(Cl)cc4)cncc3s2)n1 [Example 295, 2-[4-(4-Chlorophenoxy)thieno[2,3-c]pyridin-2-yl]-1,3-thiazol-4-amine]	59%	44%	56%			
